Reference: patent US20220000734A1, “COMPOSITION AND METHOD OF STRENGTHENING SKIN BARRIER” (AMOREPACIFIC CORPORATION, priority 2018, published 2022)

Assays:
Assay type in all cases: cell-based, human
KRT1 (keratin 1) = experiment: KRT1 gene expression in UVB-irradiated NHEK (Taqman real-time PCR); details: UVB 25 mJ/cm^2, 10 nM compound, fourth day of culture, FIG. 1
Protocol: (§1) Normal human epidermal keratinocytes (NHEK) were cultured in a 6-well plate incubator. 24 hours later, the normal human epidermal keratinocytes (NHEK) were cultured by replacing it with phosphate-buffered saline (PBS) and irradiating it with UVB (25 mJ/cm^2) and adding 10 nM of a compound represented by Chemical Formula 1-1 (Cayman Chemical) to the NHEK culture medium. On the fourth day of the culture, cells were harvested to separate RNA and synthesize cDNA through RT-PCR (a reverse transcriptional polymerase chain reaction), and the synthesized cDNA was used to perform Taqman real-time PCR and measure gene expression levels of a keratinocyte differentiation markers, KRT1 and KRT10, and a desmosome constituent factor, DSC1, and the results are shown in FIGS. 1 to 3.

DSC1 = DSC1 gene expression in UVB-irradiated NHEK (Taqman real-time PCR); details: UVB 25 mJ/cm^2, 10 nM compound, fourth day of culture, FIG. 3
Protocol: as §1

KRT10 (keratin 10) = experiment: KRT10 gene expression in UVB-irradiated NHEK (Taqman real-time PCR); details: UVB 25 mJ/cm^2, 10 nM compound, fourth day of culture, FIG. 2
Protocol: as §1

CC/C=C/C/C=C\C[C@H](O)\C=C/C=C/C=C/[C@H](O)C/C=C\CCC(=O)O [Chemical Formula 1-1]
increased again: gene expression level of KRT1 (keratin 1) (KRT1 (keratin 1)) | gene expression level of DSC1 (DSC1) | gene expression level of KRT10 (keratin 10) (KRT10 (keratin 10))
